Test [1] relates to E. coli cell suspension (proton-dependent ATP synthase of the cytoplasmic membrane). The experiment in a line: ATP synthesis induced by artificial transmembrane pH gradient. Format: cell-based, Escherichia coli. The following applies: E. coli starved cells; 10 μM, added 5 min before pH shift of 3.5–4.0 units; luciferin–luciferase. As for the experimental part: (§1) Here, we assumed that any effect the AMPs exerted on the pH-induced ATP synthesis indicated a direct interaction between the peptide and the cytoplasmic membrane. After the induction of a pH gradient of 3.5–4.0 units in cell suspensions of both Z. mobilis and E. coli, we observed an abrupt increase in the intracellular ATP concentration, reaching its maximum value within a time span between 30 sec and 1 min. The magnitude of the observed ATP concentration rise approximately corresponded to previously published values. […] When added in amounts below the threshold value (Figure 4a,b), peptides had no inhibitory effect on the ATP response. […] Yet, such an effect elicits a much stronger physiological response in E. coli than in Z. mobilis.
(§2) ATP synthase activity induced by an artificial pH gradient was measured in non-growing starved cell suspensions. For the preparation of non-growing cell suspension, cells were harvested in the late exponential phase, sedimented, washed, and resuspended in 100 mM potassium phosphate buffer (pH 7.0), to a biomass concentration of 1.5–2.0 mg dry wt /mL. […] For ATP determination, 20 μL samples were quenched in ice-cold 10% TCA and assayed by the standard luciferin–luciferase method using a TECAN Infinite 200Pro microplate reader (Tecan, Männedorf, Switzerland). […]

The subject of test [2] is Z. mobilis cell suspension (proton-dependent ATP synthase of the cytoplasmic membrane). The description is as above. Format: cell-based, Zymomonas mobilis. The following applies: Z. mobilis starved cells; 10 μM, added 5 min before pH shift of 3.5–4.0 units; luciferin–luciferase. As for the experimental part: as §1, §2

Regarding `N#CC(C#N)=NNc1cccc(Cl)c1` [ClCCP], the “effect on pH gradient-induced ATP synthesis” value is “almost complete de-energization and a dramatic drop of the ATP yield” in test [1]; “almost complete de-energization and a dramatic drop of the ATP yield” in test [2].

Source of the values: paper PMC11118514, “Eminent Antimicrobial Peptide Resistance in Zymomonas mobilis: A Novel Advantage of Intrinsically Uncoupled Energetics” (Antibiotics, 2024).
